Data from patent publication US10058587B2, “Peptide composition for cancer treatment by inhibiting TRPV6 calcium channel activity” (priority 2008, dated 2018).
Where no end group is shown, it is not given here.

How the values were obtained:
[1] = test system: mealworm larvae; test: Mealworm larva paralytic bioassay; type: in vivo; settings: for larvae paralyzed: 20 nmole/100 mg mass; for paralysis in the mealworm larva model: molar equivalent doses (20 nanomole/100 mg larva)
Excerpt: To show this, the mealworm larva paralytic bioassay reported previously (U.S. Pat. No. 7,119,168) was used. Animals from a mealworm colony were arbitrarily selected and placed in groups (treatment and control). The animals were weighed to allow calculation of equivalent doses. The treatment was with either SorC13 or SorC27 dissolved in buffered insect Ringer's solution. The control was injection was an equivalent volume of insect Ringer's (NaCl; 10.40 g; KCl, 0.32 g; CaCl2, 0.48 g; NaHCO3, 0.32 g dissolved in 1 L of Millipore sterile water, pH 7.4). Peptide formulations were: SorC27 solutions, prepared at 1.0 mg/100 uL insect Ringer's (10 ug/uL, […], MW=2957); and SorC13, prepared at 0.5 mg/100 uL (5 ug/uL, […], MW=1566). The doses were 50 ug SorC27 per 100 mg of animal mass and 25 ug SorC13 per 100 mg of animal mass. Peptide solutions and control saline were injected dorsally at the fourth segment from the head, just under the integumen. Animals were gently ‘tail tweaked’ with forceps to trigger the escape reflex reaction and scored on time-to-effect, duration of effect and intensity of effect.

[2] = test system: MCF 10A non-cancerous breast cell line; test: Induction of apoptosis (APO-ONE caspase 3/7) and cell viability (CellTiter Blue); type: cell-based, human; design: key to Decline in cell viability: cell viability decreased (+); or not (−)
Method: (§1) MCF-10A, MCF-12A were cultured in 50% DMEM plus 50% Ham's F12 modified with 2 mM L-glutamine, 1 mM sodium pyruvate, 0.01 mg/mL bovine insulin, 500 ng/mL hydrocortisone, 50 ug/mL of penicillin and streptomycin. The combined medium was supplemented with 5% (v/v) fetal bovine serum.
(§2) The levels of apoptotic induction and cell viability were determined by multiplexing the measurements for single samples. CellTiter Blue and APO-ONE assay systems from Promega allows the determination of cell viability correlated to cell number, and induction of apoptosis. This protocol uses a fluorgenic peptide that contains a peptide recognition-sequence for caspase 3 and caspase 7, […] proteolytic enzymes of the apoptosis cascade. The CellTiter Blue reagent was added to wells in a 96-well plate containing cells under test, immediately after addition of peptide solution or vehicle. About 5000 cells were plated into the wells the day before. At the chosen time (Day 1, Day 2 etc.) the fluorescence was measured at 590 nm (emission) after excitation at 560 nm. The caspase 3/7 activity was measured (485 nm Ex/527 nm Em) in the same wells after adding 120 uL of the Apo-ONE reagent, freeze fracturing at −80° C. for 1 hr, and incubating for 1 hr at room temperature.
(§3) For this work, the concentrations of SorC13 and SorC27 used were 0 uM, 1 uM, 10 uM and 100 uM. The experiments extended over a 5 to 7 day period. All measurements were done in quadruplicate with both a blank (no cells) and control (vehicle, no peptide) used to correct the test measurements. The time-response data, and the dose-response data were plotted as means±standard error of the mean. Any statistical comparisons were done with the Student's t-test or by ANOVA analysis over the dose course. The level of statistical significance was considered to be the 95% confidence interval (i.e., p≤0.05).

[3] = test system: MCF 12A non-cancerous breast cell line; test: as above; type: cell-based, human; design: key to Decline in cell viability: cell viability decreased (+); or not (−)
Method: as §1, §2, §3

[4] = test system: OVCAR3 ovarian cancer cell line; test: as above; type: cell-based, human; design: key to Decline in cell viability: decreased (+); or not (−); settings: for apoptosis (treatment:control ratio) compared with CAT cocktail: CAT = 10 uM Paclitaxel, 20 mM carboplatin
Method: OVCAR-3 was cultured in RPMI 1640 medium supplemented with 1.0 mM sodium pyruvate, 0.01 mg/mL insulin and 10% (v/v) fetal bovine serum.
as §2, §3
(§4) To compare the effect of the two SorC-peptides against the gold-standard treatment for ovarian cancers SorC13 or SorC27 was compared to treatment with a carboplatin and taxol (CAT) cocktail (10 uM Paclitaxel, 20 mM carboplatin) using the APO-ONE assay, which measures the combined activities of caspase 3 and caspase 7. Because of the mixed treatment (CAT), the effects were compared in terms of the ratio of treatment:control. If no effect was noted then the ratio=1. Comparisons of the treatment:control ratios were examined with the Student's t-test at a confidence level of 95%. Ratios of larger than a value of unity indicated a positive effect. The effects are illustrated in FIG. 5.

[5] = test system: SKOV3 ovarian cancer cell line; test: as above; type: cell-based, human; design: key to Decline in cell viability: decreased (+); or not (−); settings: for apoptosis (treatment:control ratio) compared with CAT cocktail: CAT = 10 uM Paclitaxel, 20 mM carboplatin
Method: SKOV-3 was cultured in […] medium supplemented with 1.5 mM L-glutamine, 2.2 g/L sodium bicarbonate and 10% (v/v) fetal bovine serum.
as §2, §3, §4

[6] = test system: Daudi; test: Apoptosis and cell viability in Burkitt's lymphoma cell line (Example 11); type: cell-based, human; settings: 0, 10 and 100 uM, 5 to 7 days
Method: (§5) For this work, the concentrations of SorC13 and SorC27 used are 0 uM, 10 uM and 100 uM. The experiments extend over a 5 to 7 day period. All measurements are done in quadruplicate with both a blank (no cells) and control (vehicle, no peptide) used to correct the test measurements. The time-response data, and the dose-response data are plotted as means±standard error of the mean.
The cell line Daudi (from ATCC CCL-213) is grown under the recommended conditions and in culture media recommended by ATCC. The cell lines were cultured under sterile conditions at 37° C., in a humidified 5% CO2 atmosphere.
(§6) Induction of apoptosis and attendant decrease is observed in cell viability in the cancer cell lines. From the large increases in the activities of the caspase3/7 activity, it is clear that there is a time dependent effect and a dose dependent effect on the induction of apoptosis.

[7] = test system: MV-4-11; test: Apoptosis and cell viability in AML cell line (Example 13); type: cell-based, human; settings: 0, 10 and 100 uM, 5 to 7 days
Method: as §5
The cell line MV-4-11 (from ATCC […]) is grown under the recommended conditions and in culture media recommended by ATCC. The cell lines were cultured under sterile conditions at 37° C., in a humidified 5% CO2 atmosphere.
as §6

## KEFLHPSKVDLPR [SorC13, KEFLHPSKVDLPR]
[1]; time 0 min
  larvae paralyzed: 0/4
[1]; time 2 min
  larvae paralyzed: 0/4
[1]; time 30 min
  larvae paralyzed: 0/4
[1]
  paralysis in the mealworm larva model: no evidence of paralysis
[2]; SorC13 100 uM
  Apoptosis Index (1 = no effect): 1.0
  Decline in cell viability: −
[3]; SorC13 100 uM
  Apoptosis Index (1 = no effect): 1.0
  Decline in cell viability: −
[4]
  apoptosis (treatment:control ratio) compared with CAT cocktail: produced earlier and more intense apoptosis cascade than the CAT cocktail
[4]; Day 4, SorC13 100 uM
  Apoptosis Index (1 = no effect): 1.4
[4]; Day 5, SorC13 100 uM
  Apoptosis Index (1 = no effect): 1.7
  Decline in cell viability: +
[5]
  apoptosis (treatment:control ratio) compared with CAT cocktail: produced earlier and more intense apoptosis cascade than the CAT cocktail
[5]; Day 4, SorC13 100 uM
  Apoptosis Index (1 = no effect): 2.2
[5]; Day 5, SorC13 100 uM
  Apoptosis Index (1 = no effect): 2.7
  Decline in cell viability: +
[6]
  induction of apoptosis and cell viability: induces apoptosis and decreases cell viability
[7]
  induction of apoptosis and cell viability: induces apoptosis and decreases cell viability

## EGKLSSNDTEGGLCKEFLHPSKVDLPR [SorC27]
[1]; time 0 min
  larvae paralyzed: 0/4
[1]; time 2 min
  larvae paralyzed: 0/4
[1]; time 30 min
  larvae paralyzed: 0/4
[1]
  paralysis in the mealworm larva model: no evidence of paralysis
[2]; SorC27 100 μM
  Apoptosis Index (1 = no effect): 1.0
  Decline in cell viability: −
[3]; SorC27 100 μM
  Apoptosis Index (1 = no effect): 1.0
  Decline in cell viability: −
[4]
  apoptosis (treatment:control ratio) compared with CAT cocktail: produced apoptosis sooner and more intensely than the CAT cocktail
[4]; Day 3, SorC27 10 uM
  Apoptosis Index (1 = no effect): 2.2
[4]; Day 3, SorC27 100 uM
  Apoptosis Index (1 = no effect): 2.2
[4]; Day 5, SorC27 10 uM
  Apoptosis Index (1 = no effect): 4.1
[4]; Day 5, SorC27 100 uM
  Apoptosis Index (1 = no effect): 6.3
[4]; SorC27
  Decline in cell viability: +
[5]
  apoptosis (treatment:control ratio) compared with CAT cocktail: produced apoptosis sooner and more intensely than the CAT cocktail
[5]; Day 2, SorC27 10 uM
  Apoptosis Index (1 = no effect): 2.7
[5]; Day 2, SorC27 100 uM
  Apoptosis Index (1 = no effect): 1.5
[5]; Day 3, SorC27 1 uM
  Apoptosis Index (1 = no effect): 1.7
[5]; Day 3, SorC27 10 uM
  Apoptosis Index (1 = no effect): 2.4
[5]; Day 3, SorC27 100 uM
  Apoptosis Index (1 = no effect): 2.7
[5]; SorC27
  Decline in cell viability: +
[6]
  induction of apoptosis and cell viability: induces apoptosis and decreases cell viability
[7]
  induction of apoptosis and cell viability: induces apoptosis and decreases cell viability
